Source: patent publication US20070026080A1, “Manufacturing process for tigecycline” (Wyeth, priority 2005, published 2007)

Test: Strength and degradation profile of tigecycline 20 mg/mL bulk solutions by reversed phase HPLC (effect of temperature, time, pH, dissolved oxygen; Runs A to O)
Assay type: physicochemical
Details: pH 7.7, Oxygen = 0.1 mg/L
Protocol: The contents of the sample vials are dissolved in diluent. The sample solution is diluted, if necessary, and chromatographed on a reversed phase column using gradient elution. Impurities are determined by comparing the impurity peak areas in the sample preparation chromatogram to the average area of tigecycline peaks in the standard preparation chromatograms obtained concomitantly.
Chromatographic Column—Length about 15 cm, inside diameter about 4.6 mm, packed with Inertsil ODS2, 5 μm size particles or equivalent.
Detector—Ultraviolet spectrophotometric detector capable of operating at 248 nm with a sensitivity of about 0.5 absorbance units full scale.
The results of additional studies to investigate the effect of processing parameters such as temperature, time, and dissolved oxygen content on the purity profile of tigecycline solutions using the following materials, methods and procedures are presented in Tables A to O.
The experiments were run in plastic glove bags under normal laboratory light conditions. Plastic glove boxes will be used to control the headspace of the beakers. The batch size was 200 mL. • 1. Prepare the glove bag with a mixture of nitrogen and air to achieve an oxygen level in the solution as per the design. • 2. Place the jacketed beaker on the magnetic stirrer. Connect it to the cooler. Set the cooler to the desired set point. • 3. Add 200 mL of SWFI in to the beaker. Allow equilibrating. Measure the temperature and oxygen content. When it reaches the desired condition, add accurately weighed API and mix until dissolved. If necessary use spatula to aid dissolution. For pH adjustments, use 4 mL of either 0.1N NaOH or 0.1N HCl and 196 mL of WFI for manufacture. • 4. After complete dissolution, Transfer about 5.5 mL of Solution in vials and stopper them. These vials will be stoppered at the appropriate headspace conditions. Place the vials in appropriate temperature conditions. • 5. Sample the vials at 1, 4, 8, 10, 12 and 24 hours. Send the samples for analysis. Freeze the 10, 12 and 24 samples at −20° C. for analysis the following day. • 6. Measure pH and record color of the solution at each time point. Results
The 1-hour samples were taken directly from the beakers. Samples for later time points were collected in stoppered vials processed in the atmosphere of the bag in order to simulate the headspace conditions then placed in water baths or refrigerator to maintain there respective temperature conditions. This was done to maintain safety in the lab. Disposable plastic glove bags require constant flow of a mixture of nitrogen and air to maintain headspace oxygen level that will result in the desired dissolved oxygen (DO) content in the sample. The pH of samples was measured at each sample points.
Strength and degradation profile was analyzed by HPLC as described above. […] Degradation was slightly higher at higher temperature condition.

SMILES: CN(C)c1cc(NC(=O)CNC(C)(C)C)c(O)c2c1C[C@H]1C[C@H]3[C@H](N(C)C)C(O)=C(C(N)=O)C(=O)[C@@]3(O)C(O)=C1C2=O [Tigecycline]
- RRT 1.45 (Run #L, 2° C., 12 Hrs): 0.07%
- RRT 1.58 (Run #L, 2° C., 12 Hrs): BRL (BRL means below reporting limit (meaning less than 0.05% of tigecycline peak))
- RRT 1.64 Mino (Run #L, 2° C., 12 Hrs): 0.14%
- RRT 1.67 MW = 556 (Run #L, 2° C., 12 Hrs): BRL (BRL means below reporting limit (meaning less than 0.05% of tigecycline peak))
- RRT 1.85 MW = 597 (Run #L, 2° C., 12 Hrs): 0.08%
- Strength (Run #L, 2° C., 12 Hrs): 19.448 mg/mL
- Total (Run #L, 2° C., 12 Hrs): 0.58%
- RRT 0.12 MW = 633 (Run #L, 2° C., 24 Hrs): BRL (BRL means below reporting limit (meaning less than 0.05% of tigecycline peak))
- RRT 0.23 MW = 572 (Run #L, 2° C., 24 Hrs): BRL (BRL means below reporting limit (meaning less than 0.05% of tigecycline peak))
- RRT 0.50 MW = 601 (Run #L, 2° C., 24 Hrs): BRL (BRL means below reporting limit (meaning less than 0.05% of tigecycline peak))
- RRT 0.55 MW = 583 (Run #L, 2° C., 24 Hrs): BRL (BRL means below reporting limit (meaning less than 0.05% of tigecycline peak))
- RRT 0.58 (Run #L, 2° C., 24 Hrs): 0.09%
- RRT 0.64 9-Amino (Run #L, 2° C., 24 Hrs): BRL (BRL means below reporting limit (meaning less than 0.05% of tigecycline peak))
- RRT 0.74 Epimer (Run #L, 2° C., 24 Hrs): 0.21%
- RRT 0.76 (Run #L, 2° C., 24 Hrs): BRL (BRL means below reporting limit (meaning less than 0.05% of tigecycline peak))
- RRT 0.78 MW = 557 (Run #L, 2° C., 24 Hrs): BRL (BRL means below reporting limit (meaning less than 0.05% of tigecycline peak))
- RRT 1.12 (Run #L, 2° C., 24 Hrs): BRL (BRL means below reporting limit (meaning less than 0.05% of tigecycline peak))
- RRT 1.45 (Run #L, 2° C., 24 Hrs): 0.08%
- RRT 1.58 (Run #L, 2° C., 24 Hrs): BRL (BRL means below reporting limit (meaning less than 0.05% of tigecycline peak))
- RRT 1.64 Mino (Run #L, 2° C., 24 Hrs): 0.13%
- RRT 1.67 MW = 556 (Run #L, 2° C., 24 Hrs): BRL (BRL means below reporting limit (meaning less than 0.05% of tigecycline peak))
- RRT 1.85 MW = 597 (Run #L, 2° C., 24 Hrs): 0.09%
- Strength (Run #L, 2° C., 24 Hrs): 19.156 mg/mL
- Total (Run #L, 2° C., 24 Hrs): 0.61%
- RRT 0.12 MW = 633 (Run #M, 8° C., 1 Hrs): BRL (BRL means below reporting limit (meaning less than 0.05% of tigecycline peak))
- RRT 0.23 MW = 572 (Run #M, 8° C., 1 Hrs): BRL (BRL means below reporting limit (meaning less than 0.05% of tigecycline peak))
- RRT 0.50 MW = 601 (Run #M, 8° C., 1 Hrs): BRL (BRL means below reporting limit (meaning less than 0.05% of tigecycline peak))
- RRT 0.55 MW = 583 (Run #M, 8° C., 1 Hrs): BRL (BRL means below reporting limit (meaning less than 0.05% of tigecycline peak))
- RRT 0.58 (Run #M, 8° C., 1 Hrs): 0.08%
- RRT 0.64 9-Amino (Run #M, 8° C., 1 Hrs): BRL (BRL means below reporting limit (meaning less than 0.05% of tigecycline peak))
- RRT 0.74 Epimer (Run #M, 8° C., 1 Hrs): 0.20%
- RRT 0.76 (Run #M, 8° C., 1 Hrs): 0.06%
- RRT 0.78 MW = 557 (Run #M, 8° C., 1 Hrs): BRL (BRL means below reporting limit (meaning less than 0.05% of tigecycline peak))
- RRT 1.12 (Run #M, 8° C., 1 Hrs): BRL (BRL means below reporting limit (meaning less than 0.05% of tigecycline peak))
- RRT 1.45 (Run #M, 8° C., 1 Hrs): BRL (BRL means below reporting limit (meaning less than 0.05% of tigecycline peak))
- RRT 1.58 (Run #M, 8° C., 1 Hrs): BRL (BRL means below reporting limit (meaning less than 0.05% of tigecycline peak))
- RRT 1.64 Mino (Run #M, 8° C., 1 Hrs): 0.14%
- RRT 1.67 MW = 556 (Run #M, 8° C., 1 Hrs): BRL (BRL means below reporting limit (meaning less than 0.05% of tigecycline peak))
- RRT 1.85 MW = 597 (Run #M, 8° C., 1 Hrs): BRL (BRL means below reporting limit (meaning less than 0.05% of tigecycline peak))
- Strength (Run #M, 8° C., 1 Hrs): 19.270 mg/mL
- Total (Run #M, 8° C., 1 Hrs): 0.47%
- RRT 0.12 MW = 633 (Run #M, 8° C., 4 Hrs): BRL (BRL means below reporting limit (meaning less than 0.05% of tigecycline peak))
- RRT 0.23 MW = 572 (Run #M, 8° C., 4 Hrs): BRL (BRL means below reporting limit (meaning less than 0.05% of tigecycline peak))
- RRT 0.50 MW = 601 (Run #M, 8° C., 4 Hrs): BRL (BRL means below reporting limit (meaning less than 0.05% of tigecycline peak))
- RRT 0.55 MW = 583 (Run #M, 8° C., 4 Hrs): BRL (BRL means below reporting limit (meaning less than 0.05% of tigecycline peak))
- RRT 0.58 (Run #M, 8° C., 4 Hrs): 0.07%
- RRT 0.64 9-Amino (Run #M, 8° C., 4 Hrs): BRL (BRL means below reporting limit (meaning less than 0.05% of tigecycline peak))
- RRT 0.74 Epimer (Run #M, 8° C., 4 Hrs): 0.23%
- RRT 0.76 (Run #M, 8° C., 4 Hrs): 0.06%
- RRT 0.78 MW = 557 (Run #M, 8° C., 4 Hrs): BRL (BRL means below reporting limit (meaning less than 0.05% of tigecycline peak))
- RRT 1.12 (Run #M, 8° C., 4 Hrs): BRL (BRL means below reporting limit (meaning less than 0.05% of tigecycline peak))
- RRT 1.45 (Run #M, 8° C., 4 Hrs): 0.06%
- RRT 1.58 (Run #M, 8° C., 4 Hrs): BRL (BRL means below reporting limit (meaning less than 0.05% of tigecycline peak))
- RRT 1.64 Mino (Run #M, 8° C., 4 Hrs): 0.08%
- RRT 1.67 MW = 556 (Run #M, 8° C., 4 Hrs): BRL (BRL means below reporting limit (meaning less than 0.05% of tigecycline peak))
- RRT 1.85 MW = 597 (Run #M, 8° C., 4 Hrs): 0.06%
- Strength (Run #M, 8° C., 4 Hrs): 19.340 mg/mL
- Total (Run #M, 8° C., 4 Hrs): 0.57%
- RRT 0.12 MW = 633 (Run #M, 8° C., 8 Hrs): BRL (BRL means below reporting limit (meaning less than 0.05% of tigecycline peak))
- RRT 0.23 MW = 572 (Run #M, 8° C., 8 Hrs): BRL (BRL means below reporting limit (meaning less than 0.05% of tigecycline peak))
- RRT 0.50 MW = 601 (Run #M, 8° C., 8 Hrs): BRL (BRL means below reporting limit (meaning less than 0.05% of tigecycline peak))
- RRT 0.55 MW = 583 (Run #M, 8° C., 8 Hrs): BRL (BRL means below reporting limit (meaning less than 0.05% of tigecycline peak))
- RRT 0.58 (Run #M, 8° C., 8 Hrs): 0.08%
- RRT 0.64 9-Amino (Run #M, 8° C., 8 Hrs): BRL (BRL means below reporting limit (meaning less than 0.05% of tigecycline peak))
- RRT 0.74 Epimer (Run #M, 8° C., 8 Hrs): 0.24%
- RRT 0.76 (Run #M, 8° C., 8 Hrs): 0.06%
- RRT 0.78 MW = 557 (Run #M, 8° C., 8 Hrs): BRL (BRL means below reporting limit (meaning less than 0.05% of tigecycline peak))
- RRT 1.12 (Run #M, 8° C., 8 Hrs): BRL (BRL means below reporting limit (meaning less than 0.05% of tigecycline peak))
- RRT 1.45 (Run #M, 8° C., 8 Hrs): 0.07%
- RRT 1.58 (Run #M, 8° C., 8 Hrs): BRL (BRL means below reporting limit (meaning less than 0.05% of tigecycline peak))
- RRT 1.64 Mino (Run #M, 8° C., 8 Hrs): 0.11%
- RRT 1.67 MW = 556 (Run #M, 8° C., 8 Hrs): BRL (BRL means below reporting limit (meaning less than 0.05% of tigecycline peak))
- RRT 1.85 MW = 597 (Run #M, 8° C., 8 Hrs): 0.06%
- Strength (Run #M, 8° C., 8 Hrs): 19.238 mg/mL
- Total (Run #M, 8° C., 8 Hrs): 0.62%
- RRT 0.12 MW = 633 (Run #M, 8° C., 10 Hrs): BRL (BRL means below reporting limit (meaning less than 0.05% of tigecycline peak))
- RRT 0.23 MW = 572 (Run #M, 8° C., 10 Hrs): BRL (BRL means below reporting limit (meaning less than 0.05% of tigecycline peak))
- RRT 0.50 MW = 601 (Run #M, 8° C., 10 Hrs): BRL (BRL means below reporting limit (meaning less than 0.05% of tigecycline peak))
- RRT 0.55 MW = 583 (Run #M, 8° C., 10 Hrs): 0.09%
- RRT 0.58 (Run #M, 8° C., 10 Hrs): 0.07%
- RRT 0.64 9-Amino (Run #M, 8° C., 10 Hrs): BRL (BRL means below reporting limit (meaning less than 0.05% of tigecycline peak))
- RRT 0.74 Epimer (Run #M, 8° C., 10 Hrs): 0.25%
- RRT 0.76 (Run #M, 8° C., 10 Hrs): 0.05%
- RRT 0.78 MW = 557 (Run #M, 8° C., 10 Hrs): BRL (BRL means below reporting limit (meaning less than 0.05% of tigecycline peak))
